Assay results: paper PMC8291587, “Guanidine Derivatives: How Simple Structural Modification of Histamine H3R Antagonists Has Led to the Discovery of Potent Muscarinic M2R/M4R Antagonists” (ACS Chemical Neuroscience, 2021)
pKi: −log10 of the molar value. Read-outs that look alike come from different tables or passages of the source.

Columns and labels:
hM2R = biological target: T1, hM2R (Homo sapiens, UniProt P08172); test: hM2R radioligand binding ([3H]NMS, CHO cell membranes)
T1 construct: host or cells: CHO cells, stably transfected; crude membranes
T1 sequence (P08172 1-466): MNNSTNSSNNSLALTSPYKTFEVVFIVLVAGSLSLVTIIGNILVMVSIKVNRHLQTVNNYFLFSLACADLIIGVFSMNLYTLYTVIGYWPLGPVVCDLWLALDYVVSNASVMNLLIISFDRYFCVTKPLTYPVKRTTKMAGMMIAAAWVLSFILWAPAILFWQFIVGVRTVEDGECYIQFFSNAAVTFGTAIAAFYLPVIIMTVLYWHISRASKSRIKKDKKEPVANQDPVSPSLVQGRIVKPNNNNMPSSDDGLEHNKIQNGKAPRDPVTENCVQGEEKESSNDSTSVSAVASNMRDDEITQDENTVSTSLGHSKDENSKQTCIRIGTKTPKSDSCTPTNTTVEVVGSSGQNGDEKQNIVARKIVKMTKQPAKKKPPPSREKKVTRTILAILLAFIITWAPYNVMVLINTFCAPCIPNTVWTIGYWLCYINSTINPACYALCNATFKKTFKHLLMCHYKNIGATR
Experimental: (§1) To clearly explain the obtained outcome, we engaged the radioligand binding experiment. The hM1–hM5 radioligand binding experiments were performed in the membrane fractions of Chinese hamster ovary cells (CHO) stably expressing human variants of muscarinic receptors. N-[^3H]Methylscopolamine was used as the radiolabeled ligand.[39] Three compounds were selected from ex vivo screening on guinea pig ileum. […] This compound is also not completely selective for the remaining muscarinic receptor subtypes with −log Ki values over 6. […] It is also a potent muscarinic M1R antagonist, and the M1R/M2R selectivity ratio is <10. It is worth noting that such nonspecific anticholinergics are often associated with neuropsychiatric and cognitive disturbances and that nonselective muscarinic M1R/M2R antagonists, such as scopolamine, can produce cognitive deficits. Further structural modifications of ADS10227 should be used to increase selectivity toward the M2R, as these may present fewer potential side effects associated with the activation of the phospholipase C signaling pathway.
(§2) The culture was derived from CHO cells stably transfected with the genes of human variants of muscarinic receptors. These were purchased from Missouri S&T cDNA Resource Center (Rolla, MO, USA). Cell cultures and crude membranes were prepared as described previously.[45] The cells were grown to confluence in 75 cm^2 flasks in Dulbecco’s modified Eagle’s medium (DMEM) supplemented with 10% fetal bovine serum, and 2 million cells were subcultured to 100 mm Petri dishes. The medium was supplemented with 5 mM butyrate for the last 24 h of cultivation to increase receptor expression. Cells were detached by mild trypsinization on day 5 after subculture. Detached cells were washed twice in 50 mL of phosphate-buffered saline and 3 min centrifugation at 250g. […]
(§3) All radioligand binding experiments were optimized and carried out according to general guidelines.[39] […] N-Methylscopolamine binding was measured directly in saturation experiments using six concentrations (30–1000 pM) of [^3H]NMS during incubation for 1 h (M2R), 3 h (M1R, M3R, and M4R), or 5 h (M5R). For calculations of the equilibrium dissociation constant (KD), concentrations of free [^3H]NMS were calculated by subtraction of bound radioactivity from total radioactivity in the sample and fitting eq 1 (Experimental Data analysis section). The binding of the tested ligands was determined in competition experiments with 100 pM [^3H]NMS. […] Nonspecific binding was determined in the presence of 1 μM unlabeled atropine. […]

hM4R = biological target: T2, hM4R (Homo sapiens, UniProt P08173); test: hM4R radioligand binding ([3H]NMS, CHO cell membranes)
T2 construct: host or cells: CHO cells, stably transfected; crude membranes
T2 sequence (P08173 1-479): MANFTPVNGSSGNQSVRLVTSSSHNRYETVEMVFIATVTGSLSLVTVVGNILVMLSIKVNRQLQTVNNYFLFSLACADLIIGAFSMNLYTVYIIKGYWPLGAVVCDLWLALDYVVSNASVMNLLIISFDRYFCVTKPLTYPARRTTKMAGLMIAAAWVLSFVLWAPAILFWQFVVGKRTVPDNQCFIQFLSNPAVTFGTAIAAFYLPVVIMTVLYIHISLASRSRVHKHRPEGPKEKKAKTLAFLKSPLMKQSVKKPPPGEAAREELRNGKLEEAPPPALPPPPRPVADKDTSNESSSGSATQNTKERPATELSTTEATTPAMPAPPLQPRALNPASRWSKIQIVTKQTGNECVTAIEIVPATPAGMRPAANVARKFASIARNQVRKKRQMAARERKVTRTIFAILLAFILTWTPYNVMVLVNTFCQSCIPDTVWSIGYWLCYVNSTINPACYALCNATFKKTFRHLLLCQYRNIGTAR
Experimental: as §1
The culture was derived from CHO cells stably transfected with the genes of human variants of muscarinic receptors. These were purchased from Missouri S&T cDNA Resource Center (Rolla, MO, USA). Cell cultures and crude membranes were prepared as described previously.[45] […]
as §3

hM1R = biological target: T3, hM1R (Homo sapiens, UniProt P11229); test: hM1R radioligand binding ([3H]NMS, CHO cell membranes); details: for Ki: read-out: hM1R -log(Ki) ± sem (converted)
T3 construct: host or cells: CHO cells, stably transfected; crude membranes
T3 sequence (P11229 1-460): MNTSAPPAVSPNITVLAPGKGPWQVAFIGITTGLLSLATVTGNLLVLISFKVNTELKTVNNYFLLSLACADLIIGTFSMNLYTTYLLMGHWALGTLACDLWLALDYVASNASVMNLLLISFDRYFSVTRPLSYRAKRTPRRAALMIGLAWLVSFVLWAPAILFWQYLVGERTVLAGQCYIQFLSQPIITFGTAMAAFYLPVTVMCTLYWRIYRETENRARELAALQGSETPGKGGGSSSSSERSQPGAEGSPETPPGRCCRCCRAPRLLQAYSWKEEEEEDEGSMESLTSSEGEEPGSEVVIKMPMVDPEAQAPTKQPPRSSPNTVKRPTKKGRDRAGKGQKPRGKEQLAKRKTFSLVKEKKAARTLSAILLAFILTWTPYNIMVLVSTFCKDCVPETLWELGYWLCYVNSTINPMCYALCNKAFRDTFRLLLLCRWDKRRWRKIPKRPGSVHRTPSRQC
Experimental: as §1, §2, §3

Compound	pKi (hM2R; [3H]NMS, CHO membranes, read-out: affinity to hM2R (Ki))	Ki (hM4R; [3H]NMS, CHO membranes, read-out: hM4R -log(Ki) ± sem (converted)) [nM]	pKi (hM1R; read-out: affinity to hM1R (Ki))	Ki (hM1R) [nM]	Ki (hM2R; [3H]NMS, CHO membranes, read-out: hM2R -log(Ki) ± sem (converted)) [nM]	M1R/M2R selectivity ratio (hM2R; from hM1R and hM2R binding)	pKi (hM4R; [3H]NMS, CHO membranes, read-out: affinity to hM4R (Ki))	pKi (hM2R)	pKi (hM4R)	pKi (hM1R; hM1R -log(Ki) ± sem)
[H]/N=C(/N)N(CCCCN1CCN(CC2CCC(COc3ccccc3)CC2)CC1)Cc1ccc(C(F)(F)F)cc1 (centres unmarked) [ADS10239]	7.28	15.1	7.35	46.8						
N=C(N)N(CCCCN1CCN(C[C@H]2CC[C@@H](COc3ccccc3)CC2)CC1)Cc1ccccc1 [ADS10227, 1-{4-{4-{[4-(phenoxymethyl)cyclohexyl]methyl}piperazin-1-yl}but-1-yl}-1-(benzyl)guanidine]				19.5	2.82	< 10	8.29			
N=C(N)N(CCCCN1CCN(CCCCCCCOc2ccccc2)CC1)Cc1ccccc1 [ADS1017]								7.43	7.17	6.85
